From the supplement of paper PMC5752671

Columns and labels:
Conditions in all cases: 4 days
[1] = tested on: KASUMI1; assay: IC50 (cell viability) (log10 M)
How it was run: (§1)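 Drugs were dispensed robotically in duplicate onto fourteen leukemia cell lines plated a day earlier on 384-well plates with an extracellular matrix coating, at eight concentrations covering 4–5 logs inside the 10^–12–10^–4 M range, set for each drug. CellTiter-Glo was used to read viability after 4 days. Each IC50 in the table comes from a fitted curve. It is given as the concentration in log10 M where a four-parameter curve crosses 50% viability, or as the highest tested concentration when the curve never reaches that level.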

[2] = tested on: SKM1; assay: IC50 (cell viability) (log10 M)
How it was run: as §1

[3] = tested on: THP-1; assay: IC50 (cell viability) (log10 M)
How it was run: as §1

[4] = tested on: EOL-1; assay: area under dose-response curve (cell viability) (AUC (arbitrary, % viability x log concentration)); higher = less sensitive (more viable)
Protocol: (§2)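 14 AML cell lines were plated on extracellular-matrix-coated 384-well plates and exposed to each drug at 8 concentrations (4-5 logs within 1e-12 to 1e-4 M, tailored per drug) in duplicate. Viability was read by CellTiter-Glo after 4 days. The dose-response (averaged over duplicates) was fitted to a 4-parameter sigmoid, and the area under the curve was taken as the sensitivity measure.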

[5] = tested on: KASUMI1; assay: as above
Protocol: as §2

[6] = tested on: OCI-AML2; assay: as above
Protocol: as §2

[7] = tested on: THP-1; assay: as above
Protocol: as §2

[8] = tested on: MOLM/16; assay: IC50 (cell viability) (log10 M)
How it was run: as §1

| IC50 (log10 M) [2] | IC50 (log10 M) [3] | IC50 (log10 M) [8] | SMILES | IC50 (log10 M) [1] | area under dose-response curve [4] | area under dose-response curve [5] | area under dose-response curve [6] | area under dose-response curve [7] |
| --- | --- | --- | --- | --- | --- | --- | --- | --- |
| -5.51 | – | -6.29 | NC(=O)Nc1sc(-c2ccc(F)cc2)cc1C(N)=O [TPCA-1] | -5.74 | 492 | 617 | 619 | 678 |
| < -8.34 | > -5 | > -5 | Cc1cc(C(=O)NOCCO)c(Nc2ccc(I)cc2F)n(C)c1=O [AZD8330] | -8.22 | 169 | 375 | 33.6 | 424 |
| -7.48 | -7 | -8.05 | COc1ccc(-c2ccc3ncc4c(c3c2)n(-c2ccc(N3CCNCC3)c(C(F)(F)F)c2)c(=O)n4C)cn1 [BGT-226] | -7.28 | 344 | 366 | 356 | 415 |
| > -5 | > -5 | -5.32 | CN1CCN(CCOc2cc(OC3CCOCC3)c3c(Nc4c(Cl)ccc5c4OCO5)ncnc3c2)CC1 [AZD0530] | > -5 | 565 | 772 | 646 | 783 |
| -6.33 | -6.15 | – | Oc1cccc(-c2nc(N3CCOCC3)c3oc4ncccc4c3n2)c1 [PI-103] | -6.95 | 422 | 409 | 477 | 478 |
| > -5 | > -5 | > -5 | COc1ccc2c3n(c(=NC(=O)c4cccnc4)nc2c1OC)CCN3 [PIK-90] | -5.88 | 559 | 500 | 575 | 563 |
| -5.63 | -5.23 | -6.82 | COc1cc(Nc2c(C#N)cnc3cc(OCCCN4CCN(C)CC4)c(OC)cc23)c(Cl)cc1Cl [SKI-606] | -5.37 | 475 | 713 | 548 | 672 |
| > -5 | > -5 | -5.92 | FC(F)c1nc2ccccc2n1-c1nc(N2CCOCC2)nc(N2CCOCC2)n1 [ZSTK-474] | -6.2 | 492 | 502 | 554 | 589 |
| -7.58 | -5.46 | -5.91 | COc1cc(F)c(F)c(Nc2ccc(I)cc2F)c1NS(=O)(=O)C1(C[C@H](O)CO)CC1 [RDEA-119] | -6.56 | 464 | 406 | 291 | 500 |
| -7.45 | > -5 | > -5 | Cn1cnc2c(F)c(Nc3ccc(Br)cc3Cl)c(C(=O)NOCCO)cc21 [AZD-6244] | > -5 | 509 | 528 | 338 | 627 |
| > -5.96 | > -5.96 | -6.12 | CC1(C)CCC(c2ccc(Cl)cc2)=C(CN2CCN(c3ccc(C(=O)NS(=O)(=O)c4ccc(N[C@H](CCN5CCOCC5)CSc5ccccc5)c(S(=O)(=O)C(F)(F)F)c4)cc3)CC2)C1 [ABT-263] | -6.42 | 495 | 490 | 504 | 612 |
| – | -7.65 | -7.3 | NC(=O)Nc1cc(-c2cccc(F)c2)sc1C(=O)N[C@H]1CCCNC1 [AZD7762] | -7.28 | 6.62 | 408 | 348 | 365 |
| > -5 | > -5 | > -5 | Cc1cc(C(C)Nc2ccccc2)c2nc(N3CCOCC3)cc(=O)n2c1 (stereo not drawn) [TGX-221] | > -5 | 588 | 669 | 624 | 717 |
| > -5 | > -5 | > -5 | O=c1c(N=Nc2ccc(S(=O)(=O)O)cc2)c(-c2ccc([N+](=O)[O-])cc2)[nH]n1-c1ccccc1 [PHPS1] | > -5 | 690 | 683 | 614 | 646 |

The remaining lines, values behind:

| SMILES | IC50 (log10 M) [2] | IC50 (log10 M) [3] | IC50 (log10 M) [8] | IC50 (log10 M) [1] | area under dose-response curve [4] | area under dose-response curve [5] | area under dose-response curve [6] | area under dose-response curve [7] |
| --- | --- | --- | --- | --- | --- | --- | --- | --- |
| CC(C)CC(=O)Nc1n[nH]c2c1CN(C(=O)C1CCN(C)CC1)C2(C)C | -7.49 | -6.18 | – | -6.34 | 353 | 463 | 268 | 476 |
| Cc1cnc(Nc2ccc(OCCN3CCCC3)cc2)nc1Nc1cccc(S(=O)(=O)NC(C)(C)C)c1 | -5.97 | -5.84 | -6.74 | -6.25 | 389 | 544 | 505 | 624 |
| CN(C)C/C=C/C(=O)Nc1cc2c(Nc3ccc(F)c(Cl)c3)ncnc2cc1O[C@H]1CCOC1 [BIBW 2992] | -5.76 | -5.4 | -6.56 | -5.76 | 477 | 641 | 600 | 664 |
| CC[C@@H]1C(=O)N(C)c2cnc(Nc3ccc(C(=O)NC4CCN(C)CC4)cc3OC)nc2N1C1CCCC1 [BI-2536] | < -8.34 | < -8.34 | < -8.34 | < -8.34 | 10.5 | 118 | 5.96 | 131 |
| COc1cc2c(N3CCN(C(=O)Nc4ccc(OC(C)C)cc4)CC3)ncnc2cc1OCCCN1CCCCC1 [Tandutinib] | > -5 | > -5 | > -5 | > -5 | 264 | 646 | 647 | 690 |
| CC[C@H](CO)Nc1nc(NCc2ccccc2)c2ncn(C(C)C)c2n1 [R-roscovitine] | > -5 | > -5 | -5 | > -5 | 707 | 652 | 649 | 668 |
| CCCC(CCC)C(=O)O [Valproic acid] | > -5 | > -5 | > -5 | > -5 | 691 | 696 | 684 | 656 |
| Nc1ncnc2c1c(I)cn2[C@@H]1O[C@H](CO)[C@@H](O)[C@H]1O [5-Iodotubercidin] | -5.99 | -5.86 | -6.88 | -6.1 | 470 | 461 | 489 | 530 |
| OCCn1cc(-c2cnc3nnn(Cc4ccc5ncccc5c4)c3n2)cn1 | > -5 | > -5 | > -5 | > -5 | 616 | 638 | 540 | 662 |
| NC(=O)c1ccc(-c2nc(-c3ccccn3)c(-c3ccc4c(c3)OCO4)[nH]2)cc1 | > -5 | > -5 | > -5 | > -5 | 600 | 822 | 619 | 796 |
| COc1ccc2c(c1)CCC1C2CCC2(C)C(NCCCCCCN3C(=O)C=CC3=O)CCC12 (stereo not drawn) | -5.73 | -5.71 | > -5 | -6.38 | 523 | 509 | 656 | 608 |
| O=C(NC[C@H](O)CO)c1ccncc1Nc1ccc(I)cc1F | < -8.48 | -6.09 | -6.62 | -7.59 | 347 | 323 | 109 | 421 |
| CC1(C)CCC(C)(C)c2cc(NC(=O)c3ccc(C(=O)O)cc3)ccc21 [Tamibarotene] | > -5 | > -5 | > -5 | > -5 | 293 | 646 | 457 | 562 |
| CC/C(=C(\c1ccccc1)c1ccc(OCCN(C)C)cc1)c1ccccc1 [Tamoxifen] | -5.01 | -5.04 | -5.43 | -5.23 | 631 | 631 | 575 | 667 |
| CN1CC[C@@H](NC(=O)Nc2ccc(C#N)cc2)C[C@@H]1c1nc2ccccc2[nH]1 | > -5 | > -5 | > -5 | > -5 | 642 | 664 | 559 | 655 |
| Clc1ccc(Nc2nnc(Cc3ccncc3)c3ccccc23)cc1 [Vatalanib] | > -5 | > -5 | > -5 | -5.26 | 488 | 590 | 654 | 722 |
| CC[C@H](C)C(=O)O[C@H]1C[C@H](O)C=C2C=C[C@H](C)[C@H](CC[C@@H](O)C[C@@H](O)CC(=O)O)[C@H]21 [Pravastatin] | > -5 | > -5 | > -5 | > -5 | 691 | 660 | 659 | 693 |
| Cn1nnc2c(C(N)=O)ncn2c1=O [Temozolomide] | > -5 | > -5 | > -5 | > -5 | 600 | 662 | 597 | 688 |
| O=C1NC(=O)/C(=C\c2ccc3nccnc3c2)S1 | > -5 | > -5 | > -5 | > -5 | 679 | 642 | 634 | 679 |
| Cl[TeH]1(Cl)(Cl)OCCO1.N [AS101] | > -5 | -5.02 | > -5 | > -5 | 626 | 691 | 547 | 626 |
